These results are taken from ChEMBL document CHEMBL1136467, “A simple stereoselective synthesis and biological evaluation of FR181157: orally active prostacyclin mimetic” (Bioorg Med Chem Lett, 2003).

Data set [1] is described as follows: Pharmacokinetic property (F) was measured in dog at the dose of 0.032 mg/kg. The class given is ADME, organism-based, Canis lupus familiaris. Further details: dose 0.032 mg/kg. Particulars: in vivo.
The next data set is filed under the species Canis familiaris. The experiment in a line: In vitro inhibition of ADP-induced platelet aggregation using dog platelet rich plasma. In kind it is functional. Particulars: Canis lupus familiaris.
Data set [2] can be described thus: Pharmacokinetic property (Tmax) was measured in rat at the dose of 0.32 mg/kg p.o. In kind it is ADME, organism-based. Details: dose 0.32 mg/kg, route oral. Particulars: in vivo, po.
A short description of data set [3]: Pharmacokinetic property (Tmax) was measured in dog at the dose of 0.032 mg/kg p.o. Details: dose 0.032 mg/kg, route oral. Particulars: in vivo, po. The class given is ADME, organism-based, Canis lupus familiaris.
The nature of data set [4]: Pharmacokinetic property (CLtot)of the compound was measured in rat at the dose of 0.32 mg/kg i.v. The class given is ADME, organism-based. Details: dose 0.32 mg/kg, route intravenous. Particulars: in vivo, iv, read-out: CLtotal.
Data set [5] can be described thus: Pharmacokinetic property (Cmax) was measured in rat at the dose of 0.32 mg/kg p.o. In kind it is ADME, organism-based. Details: dose 0.32 mg/kg, route oral. Particulars: in vivo, po.
The species entered for a further data set is Homo sapiens. Briefly: In vitro inhibition of ADP-induced platelet aggregation using human platelet rich plasma. In kind it is functional.
Data set [6] can be described thus: Pharmacokinetic property (Cmax) was measured in dog at the dose of 0.032 mg/kg. In kind it is ADME, organism-based, Canis lupus familiaris. Details: dose 0.032 mg/kg. Particulars: in vivo.
Data set [7] is described as follows: Pharmacokinetic property (t1/2beta) was measured in rat at the dose of 0.32 mg/kg i.v. Particulars: in vivo, iv, read-out: T1/2 beta (converted). The class given is ADME, organism-based. Details: dose 0.32 mg/kg, route intravenous.
The species named for a further data set is Rattus norvegicus. The experiment in a line: In vitro inhibition of ADP-induced platelet aggregation using rat platelet rich plasma. In kind it is functional.
Data set [8] is described as follows: Pharmacokinetic property (AUC) was measured in rat at the dose of 0.32 mg/kg p.o. Details: dose 0.32 mg/kg, route oral. In kind it is ADME, organism-based. Particulars: in vivo, po.
Data set [9] in a line: Pharmacokinetic property (F) was measured in rat at the dose of 0.32 mg/kg. Further details: dose 0.32 mg/kg. In kind it is ADME, organism-based. Particulars: in vivo.
Data set [10] in a line: Pharmacokinetic property (AUC) was measured in dog at the dose of 0.032 mg/kg p.o. Details: dose 0.032 mg/kg, route oral. In kind it is ADME, organism-based, Canis lupus familiaris. Particulars: in vivo, po.
The nature of data set [11]: Pharmacokinetic property (t1/2beta) was measured in dog at the dose of 0.032 mg/kg i.v. In kind it is ADME, organism-based, Canis lupus familiaris. Further details: dose 0.032 mg/kg, route intravenous. Particulars: in vivo, iv, read-out: T1/2 beta (converted).
Data set [12] can be described thus: Pharmacokinetic property (CLtot) was measured in dog at the dose of 0.032 mg/kg i.v. In kind it is ADME, organism-based, Canis lupus familiaris. Details: dose 0.032 mg/kg, route intravenous. Particulars: in vivo, iv, read-out: CLtotal.
The next data set concerns the target Prostacyclin receptor (Homo sapiens, UniProt P43119). The experiment in a line: In vitro Prostacyclin (PGI-2) receptor binding assay was determined based on displacement of [3H]iloprost radioligand from cloned human IP receptor. (In a radioligand displacement assay an active substance lowers the binding of a labelled ligand.)

pIC50, pKi: −log10 of the molar value.

Prostacyclin receptor, sequence (P43119 whole entry): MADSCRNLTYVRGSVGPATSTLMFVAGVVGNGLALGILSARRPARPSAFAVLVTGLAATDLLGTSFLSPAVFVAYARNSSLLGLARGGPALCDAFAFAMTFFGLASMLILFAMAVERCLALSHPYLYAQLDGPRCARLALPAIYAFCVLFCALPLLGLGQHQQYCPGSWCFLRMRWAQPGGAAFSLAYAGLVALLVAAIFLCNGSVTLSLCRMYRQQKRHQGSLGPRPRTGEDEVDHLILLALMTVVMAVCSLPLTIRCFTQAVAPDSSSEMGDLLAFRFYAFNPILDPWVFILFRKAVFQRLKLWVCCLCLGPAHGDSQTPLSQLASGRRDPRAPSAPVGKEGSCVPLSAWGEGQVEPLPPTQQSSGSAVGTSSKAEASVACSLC

For orientation: bioavailability means dose-corrected exposure relative to a reference, in per cent. Lower therefore signals little systemic uptake. In general, pIC50 refers to the negative decadic logarithm of the IC50, by convention in mol/L. A low value points to a large IC50. What is called Tmax is the time at which the peak concentration occurs. Usually Cmax stands for the maximum level reached in the sampled fluid or tissue. The AUC is the area under the concentration-time curve, a measure of exposure. High values mean more exposure, low ones less exposure. As usually defined, the pKi is the Ki on a negative log10 scale, so that one unit is a factor of ten. `O=C([O-])COc1cccc(C[C@@H]2CCCC=C2c2nc(-c3ccccc3)c(-c3ccccc3)o2)c1.[Na+]`: the bioavailability in data set [1] is 72%; in data set [9], 50%. The figures for the negative logarithm of the IC50 (pIC50) in the data set filed under Canis familiaris, in the data set filed under Homo sapiens and in the data set filed under Rattus norvegicus were 5.89, 7.22 and 5.92, respectively. The time of peak concentration (Tmax) in data set [2] was found to be 0.3 h; in [3], 2.3 h. The clearance is 17.7 mL/min/kg in data set [4] and 1.09 mL/min/kg in data set [12]. Further, the Cmax is 16.4 ng/mL in data set [5] and 38.7 ng/mL in data set [6]. Also, the half-life in data set [7] was 6.6 h; in data set [11] it was 26 h. For the same compound, the AUC was 147 ng·h/mL in data set [8] and 392 ng·h/mL in data set [10]. In addition, the pKi on Prostacyclin receptor was 7.27.

On to `O=C(O)COc1cccc(CC2=C(c3nc(-c4ccccc4)c(-c4ccccc4)o3)CCCC2)c1`, for which, in the data set filed under Homo sapiens, the pIC50 is 6.28.

In the data set listed under Homo sapiens, `O=C(O)COc1cccc(C[C@H]2CCCC=C2c2nc(-c3ccccc3)c(-c3ccccc3)o2)c1` had a pIC50 of 6.96. This pIC50 lies 0.68 log units higher than the previous one.

In the case of `CC#CCC(C)[C@H](O)/C=C/[C@@H]1[C@H]2C/C(=C/CCCC(=O)O)C[C@H]2C[C@H]1O` (some centres undefined) [ILOPROST], the pIC50 in the data set listed under Homo sapiens is 8.60.
